Assay results published in patent publication US8497298B2, “Use of benzo-fused heterocycle sulfamide derivatives for lowering lipids and lowering blood glucose levels” (Janssen Pharmaceutica NV, priority 2005, dated 2013).

Tests used:
[1] = tested on: db/db mice; test: Female db/db Mouse Assay, Study A: single dose part and dose response part (Example 14); format: in vivo
From the text: 0.5% Hydroxypropyl Methylcellulose (Methocel) used as vehicle/control.
Db/db mice are susceptible to Type 2 diabetes. […] All of the mice were quarantined for a period of one week before transfer to the animal procedure room. A drop of blood (about 2 microliters) was collected by tail puncture and glucose concentration was detected with a glucometer (OneTouch UltraSmart, Lifescan, Milpitas, Calif.). […] Animals were separated and single housed at least three days prior to the drug treatments to allow acclimation to the new surroundings.
In the second, dose response part of Study A, 48 mice were allocated into 4 treatment groups of 12 mice each.
The dosing volume was 5 mL/kg body weight (0.2 mL for 40 gram mice). The mice were fed ad lib throughout the study. A necropsy was completed 18 hours after last dosing.
Blood glucose levels were measured from blood collected through tail puncture using a glucometer at 1000 hour. The mice were anaesthetized with sodium pentobarbital (1 ml/kg, intraperitoneal [i.p.] injection, SleepAway, Fort Dodge, Iowa) and blood was drawn via cardiac puncture using 1 mL syringe and collected into heparinized tubes. White adipose tissues (WAT) (retroperitoneal and inguinal fat pads), brown adipose tissure (BAT) and skeletal muscles (gastrocnemius and soleus muscle) and stomach contents were dissected and weighed. Plasma samples were obtained by centrifuging whole blood at 2000˜3000 g for 10˜20 minutes at 4° C. and stored at −20° C. for further measurement of insulin, HDL, LDL, total cholesterol and triglyceride.
Plasma insulin concentrations were measured by in both studies using the appropriate rat/mouse insulin enzyme-linked immunosorbent assay (ELISA) kit (EZRMI-13K, LINCO Research, St. Charles, Mo.). Blood samples were diluted 1:4 in charcoal stripped mouse serum that was included in the ELISA kit. The rest of the procedure followed the manufacturers instruction. The total fluorescence was detected using an Orion 1 Microplate Luminometer (Berthold Detection Systems, Pforzheim, Germany).
According to manufacturers protocol, cholesterol measurement was an enzymatic method utilizing cholesterol esterase and cholesterol oxidase conversion followed by a Trinder endpoint; Elimination/catalase method was used for HDL measurement; an enzymatic method with a Trinder endpoint was used for triglyceride measurement.
Data from both parts of the Study (single dose and dose response) was analyzed using the standard two-tailed Student's t-test and are expressed below as means and standard errors.

[2] = single dose part, rosiglitazone 20 mg/kg
[3] = single dose part, rosiglitazone 20 mg/kg positive control
[4] = single dose part, rosiglitazone 20 mg/kg, plasma

Row | SMILES | melting point | total cholesterol concentrations elevated relative to vehicle ([1]; rosiglitazone, dose not given) | Brown Adipose Tissue [1, 2] | Final weight Body weight [1, 2] | Final weight Stomach contents [1, 2] | Inguinal fat [1, 2] | Muscle [1, 2] | Retroperitoneal fat [1, 2] | Total chow consumption Day 1-3 [1, 2] | Total chow consumption Day 4-6 [1, 2] | Total chow consumption Day 7-9 [1, 2] | Glucose [1, 3] | Insulin [1, 3] | Cholesterol [1, 4] | HDL [1, 4] | LDL [1, 4] | Ratio (Triglyceride to HDL) [1, 4] | Triglyceride [1, 4] | Ratio (fat/muscle) ([1]; single dose part, rosiglitazone 20 mg/kg, total inguinal and retroperitoneal fat/muscle weight) | weight gain ([1]; single dose part, rosiglitazone, p<0.05 vs vehicle 0.3±0.2 g)
1 | NS(=O)(=O)NCC1CCc2ccccc2O1 (centres unmarked) [Compound #10, Chroman-2-ylmethylsulfamide] | 100 to 101 °C | – | – | – | – | – | – | – | – | – | – | – | – | – | – | – | – | – | – | –
2 | CN(CCOc1ccc(CC2SC(=O)NC2=O)cc1)c1ccccn1 (centres unmarked) [Rosiglitazone, rosiglitazone, reference compound] | – | 35.1% | 0.32 ± 0.02 g | 43 ± 1.0 g | 0.32 ± 0.04 g | 2.44 ± 0.11 g | 0.154 ± 0.00 g | 1.45 ± 0.10 g | 21 ± 0.8 g | 22 ± 0.9 g | 19 ± 0.7 g | 170 ± 23 mg/dL | 11.2 ± 2.3 ng/mL | 123 ± 8 mg/dL | 62.5 ± 3.2 mg/dL | 3.3 ± 0.3 mg/dL | 1.6 ± 0.3 | 105 ± 23 mg/dL | 25.4 ± 1.6 | 3.1 ± 0.4 g
